Assay: recombinant UMI read abundance after kanamycin selection (control-corrected) (log10(CPM+1)); higher = more efficient recombination; extreme values may be limits of the assay; sequences stand for … in AGTGCAGAGAAAATCGGCCAGTTTTCTCTGCCTGCAGTCCGCATGCCGTGGGACCCCTTGGGTTCTAACCTGTTGCCTAGATTTATGCAGCGGACTGCCTTTCTCCCAAAGTGATAAACCGG…AGGTTGGTTTCACT; site = the 11-nt donor
Outline: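 Reported values are log10(CPM+1) from a pooled Escherichia coli screen of donor and donor-binding-loop pairs for the IS621 bridge recombinase. Selection used IPTG (0.07 mM) plus kanamycin, against unselected plating, each in two replicates. Recombinant UMIs were amplified across the donor–target junction, sequenced, converted to CPM, averaged over replicates and scaled by control-derived factors.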
With “CCTAATACATGGACCGGTTTTCCCGGTAATCCGTATTTGGC (site CCAAATACTGC)” the “recombinant UMI read abundance (log10)” value was 0.
For “CCTAATACATGGACCGGTTTTCCCGGTAATCCGTATTTGGC (site CCCAATACTGC)”, the “recombinant UMI read abundance (log10)” value was 0.
With “CCTAATACATGGACCGGTTTTCCCGGTAATCCGTATTTGGC (site CCGAATACTGC)” the “recombinant UMI read abundance (log10)” value was 0.
In the case of “CCTAATACATGGACCGGTTTTCCCGGTAATCCGTATTTGGC (site CCTAAAACTGC)”, the “recombinant UMI read abundance (log10)” value is reported as 0.00801.
With “CCTAATACATGGACCGGTTTTCCCGGTAATCCGTATTTGGC (site CCTAACACTGC)” the “recombinant UMI read abundance (log10)” value was 0.
With “CCTAATACATGGACCGGTTTTCCCGGTAATCCGTATTTGGC (site CCTAAGACTGC)” the “recombinant UMI read abundance (log10)” value was 0.
In the case of “CCTAATACATGGACCGGTTTTCCCGGTAATCCGTATTTGGC (site CCTAATACTAC)”, the “recombinant UMI read abundance (log10)” value is reported as 0.0181.
With “CCTAATACATGGACCGGTTTTCCCGGTAATCCGTATTTGGC (site CCTAATACTCC)” the “recombinant UMI read abundance (log10)” value was 0.00819.
In the case of “CCTAATACATGGACCGGTTTTCCCGGTAATCCGTATTTGGC (site CCTAATACTGA)”, the “recombinant UMI read abundance (log10)” value is reported as 0.0391.
With “CCTAATACATGGACCGGTTTTCCCGGTAATCCGTATTTGGC (site CCTAATACTGC)” the “recombinant UMI read abundance (log10)” value was 0.
With “CCTAATACATGGACCGGTTTTCCCGGTAATCCGTATTTGGC (site CCTAATACTGG)” the “recombinant UMI read abundance (log10)” value was 0.
With “CCTAATACATGGACCGGTTTTCCCGGTAATCCGTATTTGGC (site CCTAATACTGT)” the “recombinant UMI read abundance (log10)” value was 0.
With “CCTAATACATGGACCGGTTTTCCCGGTAATCCGTATTTGGC (site CCTAATACTTC)” the “recombinant UMI read abundance (log10)” value was 0.00574.
With “CCTAATACATGGACCGGTTTTCCCGGTAATCCGTATTTGGC (site CCTAATCCTGC)” the “recombinant UMI read abundance (log10)” value was 0.00798.
For “CCTAATACATGGACCGGTTTTCCCGGTAATCCGTATTTGGC (site CCTAATGCTGC)”, the “recombinant UMI read abundance (log10)” value was 0.
For “CCTAATACATGGACCGGTTTTCCCGGTAATCCGTATTTGGC (site CCTAATTCTGC)”, the “recombinant UMI read abundance (log10)” value was 0.
With “CCTAATACATGGACCGGTTTTCCCGGTAATCCGTATTTGGC (site CCTACTACTGC)” the “recombinant UMI read abundance (log10)” value was 0.0125.
For “CCTAATACATGGACCGGTTTTCCCGGTAATCCGTATTTGGC (site CCTAGTACTGC)”, the “recombinant UMI read abundance (log10)” value was 0.
For “CCTAATACATGGACCGGTTTTCCCGGTAATCCGTATTTGGC (site CCTATTACTGC)”, the “recombinant UMI read abundance (log10)” value was 0.
With “CCTAATACATGGACCGGTTTTCCCGGTAATCCGTATTTGGC (site CCTCATACTGC)” the “recombinant UMI read abundance (log10)” value was 0.
For “CCTAATACATGGACCGGTTTTCCCGGTAATCCGTATTTGGC (site CCTGATACTGC)”, the “recombinant UMI read abundance (log10)” value was 0.00582.
For “CCTAATACATGGACCGGTTTTCCCGGTAATCCGTATTTGGC (site CCTTATACTGC)”, the “recombinant UMI read abundance (log10)” value was 0.
With “CCTAATACATGGACCGGTTTTCCCGGTAATCCGTATTTGGC (site CGTAATACTGC)” the “recombinant UMI read abundance (log10)” value was 0.
With “CCTAATACATGGACCGGTTTTCCCGGTAATCCGTATTTGGC (site CTTAATACTGC)” the “recombinant UMI read abundance (log10)” value was 0.
In the case of “CCTAATACATGGACCGGTTTTCCCGGTAATCCGTATTTGGC (site GCTAATACTGC)”, the “recombinant UMI read abundance (log10)” value is reported as 0.
With “CCTAATACATGGACCGGTTTTCCCGGTAATCCGTATTTGGC (site TCTAATACTGC)” the “recombinant UMI read abundance (log10)” value was 0.
For “CCTAATTCATGGACCGGTTTTCCCGGTAATCCGTATTTGAT (site CCTAATTCTAT)”, the “recombinant UMI read abundance (log10)” value was 0.
In the case of “CCTACAGCATGGACCGGTTTTCCCGGTAATCCGTATTTGAT (site CCTAAAGCTAT)”, the “recombinant UMI read abundance (log10)” value is reported as 0.
With “CCTACAGCATGGACCGGTTTTCCCGGTAATCCGTATTTGAT (site CCTACAGCTAT)” the “recombinant UMI read abundance (log10)” value was 0.00631.
In the case of “CCTACAGCATGGACCGGTTTTCCCGGTAATCCGTATTTGAT (site CCTAGAGCTAT)”, the “recombinant UMI read abundance (log10)” value is reported as 0.
With “CCTACAGCATGGACCGGTTTTCCCGGTAATCCGTATTTGAT (site CCTATAGCTAT)” the “recombinant UMI read abundance (log10)” value was 0.002.
For “CCTAGAGCATGGACCGGTTTTCCCGGTAATCCGTATTTGAT (site CCTAAAGCTAT)”, the “recombinant UMI read abundance (log10)” value was 0.
For “CCTAGAGCATGGACCGGTTTTCCCGGTAATCCGTATTTGAT (site CCTACAGCTAT)”, the “recombinant UMI read abundance (log10)” value was 0.00404.
For “CCTAGAGCATGGACCGGTTTTCCCGGTAATCCGTATTTGAT (site CCTAGAGCTAT)”, the “recombinant UMI read abundance (log10)” value was 0.00624.
For “CCTAGAGCATGGACCGGTTTTCCCGGTAATCCGTATTTGAT (site CCTATAGCTAT)”, the “recombinant UMI read abundance (log10)” value was 0.
In the case of “CCTAGCACATGGACCGGTTTTCCCGGTAATCCGTATTTGGT (site CCTAGCACTAC)”, the “recombinant UMI read abundance (log10)” value is reported as 0.00677.
In the case of “CCTAGGTCATGGACCGGTTTTCCCGGTAATCCGTATTTGAA (site CCTAGGTCTTT)”, the “recombinant UMI read abundance (log10)” value is reported as 0.213.
With “CCTAGTACATGGACCGGTTTTCCCGGTAATCCGTATTTGGC (site CCTAATACTGC)” the “recombinant UMI read abundance (log10)” value was 0.
In the case of “CCTAGTACATGGACCGGTTTTCCCGGTAATCCGTATTTGGC (site CCTACTACTGC)”, the “recombinant UMI read abundance (log10)” value is reported as 0.
With “CCTAGTACATGGACCGGTTTTCCCGGTAATCCGTATTTGGC (site CCTAGTACTGC)” the “recombinant UMI read abundance (log10)” value was 0.
With “CCTAGTACATGGACCGGTTTTCCCGGTAATCCGTATTTGGC (site CCTATTACTGC)” the “recombinant UMI read abundance (log10)” value was 0.
In the case of “CCTAGTTCATGGACCGGTTTTCCCGGTAATCCGTATTTGAA (site CCTAGTTCTTT)”, the “recombinant UMI read abundance (log10)” value is reported as 0.
For “CCTATGTCATGGACCGGTTTTCCCGGTAATCCGTATTTGTC (site CCTATGTCTGA)”, the “recombinant UMI read abundance (log10)” value was 0.
In the case of “CCTCACTCATGGACCGGTTTTCCCGGTAATCCGTATTTGCA (site CCTCACTCTTG)”, the “recombinant UMI read abundance (log10)” value is reported as 0.399.
For “CCTCATACATGGACCGGTTTTCCCGGTAATCCGTATTTGGC (site CCTAATACTGC)”, the “recombinant UMI read abundance (log10)” value was 0.
With “CCTCATACATGGACCGGTTTTCCCGGTAATCCGTATTTGGC (site CCTCATACTGC)” the “recombinant UMI read abundance (log10)” value was 0.
In the case of “CCTCATACATGGACCGGTTTTCCCGGTAATCCGTATTTGGC (site CCTGATACTGC)”, the “recombinant UMI read abundance (log10)” value is reported as 0.
In the case of “CCTCATACATGGACCGGTTTTCCCGGTAATCCGTATTTGGC (site CCTTATACTGC)”, the “recombinant UMI read abundance (log10)” value is reported as 0.
With “CCTCTCTCATGGACCGGTTTTCCCGGTAATCCGTATTTGTA (site CATCTCTCTTA)” the “recombinant UMI read abundance (log10)” value was 0.00925.
With “CCTCTCTCATGGACCGGTTTTCCCGGTAATCCGTATTTGTA (site CCTCTCTCTTA)” the “recombinant UMI read abundance (log10)” value was 0.53.
In the case of “CCTCTCTCATGGACCGGTTTTCCCGGTAATCCGTATTTGTA (site CGTCTCTCTTA)”, the “recombinant UMI read abundance (log10)” value is reported as 0.
With “CCTCTCTCATGGACCGGTTTTCCCGGTAATCCGTATTTGTA (site CTTCTCTCTTA)” the “recombinant UMI read abundance (log10)” value was 0.0036.
In the case of “CCTGACACATGGACCGGTTTTCCCGGTAATCCGTATTTGTC (site CCTGACACTGA)”, the “recombinant UMI read abundance (log10)” value is reported as 0.
With “CCTGCAGCATGGACCGGTTTTCCCGGTAATCCGTATTTGTG (site CCTGCAGCTCA)” the “recombinant UMI read abundance (log10)” value was 0.0206.
For “CCTGCCGCATGGACCGGTTTTCCCGGTAATCCGTATTTGCC (site CCTGCCGCTGG)”, the “recombinant UMI read abundance (log10)” value was 0.
For “CCTGGTCCATGGACCGGTTTTCCCGGTAATCCGTATTTGCA (site CCAGGTCCTTG)”, the “recombinant UMI read abundance (log10)” value was 0.
For “CCTGGTCCATGGACCGGTTTTCCCGGTAATCCGTATTTGCA (site CCCGGTCCTTG)”, the “recombinant UMI read abundance (log10)” value was 0.00677.
With “CCTGGTCCATGGACCGGTTTTCCCGGTAATCCGTATTTGCA (site CCGGGTCCTTG)” the “recombinant UMI read abundance (log10)” value was 0.
In the case of “CCTGGTCCATGGACCGGTTTTCCCGGTAATCCGTATTTGCA (site CCTGGTCCTTG)”, the “recombinant UMI read abundance (log10)” value is reported as 0.
For “CCTTAGGCATGGACCGGTTTTCCCGGTAATCCGTATTTGTT (site CCTTAGGCTAA)”, the “recombinant UMI read abundance (log10)” value was 0.0132.
In the case of “CCTTATACATGGACCGGTTTTCCCGGTAATCCGTATTTGGC (site CCTAATACTGC)”, the “recombinant UMI read abundance (log10)” value is reported as 0.
For “CCTTATACATGGACCGGTTTTCCCGGTAATCCGTATTTGGC (site CCTCATACTGC)”, the “recombinant UMI read abundance (log10)” value was 0.021.
For “CCTTATACATGGACCGGTTTTCCCGGTAATCCGTATTTGGC (site CCTGATACTGC)”, the “recombinant UMI read abundance (log10)” value was 0.
In the case of “CCTTATACATGGACCGGTTTTCCCGGTAATCCGTATTTGGC (site CCTTATACTGC)”, the “recombinant UMI read abundance (log10)” value is reported as 0.
For “CCTTGAACATGGACCGGTTTTCCCGGTAATCCGTATTTGCT (site CCTTGAACTAG)”, the “recombinant UMI read abundance (log10)” value was 0.
With “CCTTGCCCATGGACCGGTTTTCCCGGTAATCCGTATTTGAT (site ACTTGCCCTAT)” the “recombinant UMI read abundance (log10)” value was 0.00442.
For “CCTTGCCCATGGACCGGTTTTCCCGGTAATCCGTATTTGAT (site CCTTGCCCTAT)”, the “recombinant UMI read abundance (log10)” value was 0.00286.
In the case of “CCTTGCCCATGGACCGGTTTTCCCGGTAATCCGTATTTGAT (site GCTTGCCCTAT)”, the “recombinant UMI read abundance (log10)” value is reported as 0.00408.
In the case of “CCTTGCCCATGGACCGGTTTTCCCGGTAATCCGTATTTGAT (site TCTTGCCCTAT)”, the “recombinant UMI read abundance (log10)” value is reported as 0.00903.
In the case of “CGAACATCATGGACCGGTTTTCCCGGTAATCCGTATTTGGA (site CGAACATCTTC)”, the “recombinant UMI read abundance (log10)” value is reported as 1.93.
For “CGAACGTCATGGACCGGTTTTCCCGGTAATCCGTATTTGCG (site CGAACGTCTCG)”, the “recombinant UMI read abundance (log10)” value was 2.37.
In the case of “CGAAGATCATGGACCGGTTTTCCCGGTAATCCGTATTTGCT (site CGAAGATCTAG)”, the “recombinant UMI read abundance (log10)” value is reported as 1.51.
For “CGAAGATCATGGACCGGTTTTCCCGGTAATCCGTATTTGCT (site CGATCATCTAG)”, the “recombinant UMI read abundance (log10)” value was 0.
With “CGAAGGACATGGACCGGTTTTCCCGGTAATCCGTATTTGGT (site CGAAGGACTAC)” the “recombinant UMI read abundance (log10)” value was 1.65.
For “CGAAGTGCATGGACCGGTTTTCCCGGTAATCCGTATTTGCC (site CGAAGTGCTGG)”, the “recombinant UMI read abundance (log10)” value was 0.751.
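Note: IS621 bridge recombinase in Escherichia coli cells against a fixed T5 target plasmid.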
